{"source": "patent US10117943B2", "about": "“Synthetic antibody mimetic compounds (SYAMS) targeting cancer, especially prostate cancer” (YALE UNIVERSITY, priority 2013, dated 2018)", "key": {"FcγRI": {"target": "T1, FcγRI (Homo sapiens, UniProt P12314)", "T1 construct": "host or cells: IIA1.6 cells", "T1 sequence (P12314 16-374)": "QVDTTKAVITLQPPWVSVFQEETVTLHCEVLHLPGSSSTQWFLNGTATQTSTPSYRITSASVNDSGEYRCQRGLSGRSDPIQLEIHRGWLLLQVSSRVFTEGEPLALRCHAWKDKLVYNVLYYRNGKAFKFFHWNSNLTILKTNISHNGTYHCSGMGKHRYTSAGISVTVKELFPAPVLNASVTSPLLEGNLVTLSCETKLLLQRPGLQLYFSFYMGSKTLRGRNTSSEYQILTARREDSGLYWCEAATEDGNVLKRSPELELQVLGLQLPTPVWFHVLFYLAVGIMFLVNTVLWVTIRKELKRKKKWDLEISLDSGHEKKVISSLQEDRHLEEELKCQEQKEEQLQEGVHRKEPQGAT", "T1 sequence (P30273 19-86 partner)": "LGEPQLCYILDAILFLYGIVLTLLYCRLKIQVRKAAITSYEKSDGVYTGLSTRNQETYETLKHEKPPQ", "assay": "IIA1.6 FcγRI expressing cell binding assay", "details": "biotin-functionalized compound, fluorescent streptavidin", "method": "Peptide dilutions have been prepared in DMSO usually starting form 1 mM stock solution with further 10 fold dilution. Cells IIa1.6 stably transfected with FcγRIA/γ-chain and non-transfected IIa1.6 cells used as isogenic negative control, were grown to approximately 1.5-2×10^6 cells/mL density, spun down and reconstituted in RPMI 1640 medium without phenol red, supplemented with 10% FBS and Pen/Strep mixture to cell density 1×10^6 cells/mL. A 100 uL aliquot of cells was further transferred into an eppendorf tube and left to cool on ice for 5-10 minutes. Following this 1 uL of peptide dissolved in DMSO was added to the cells, bringing final concentration of DMSO to 1%. After 1 hour incubation on ice with a peptide 5 uL of Streptavidin-Alexafluor 488 (2 mg/mL) was added to the cells and left incubating on ice for 30-60 minutes. After the incubation cells were washed two times with 1 mL of cold RPMI1640 medium without phenol red, supplemented with 10% FBS and Pen/Strep and finally washed once in 1 mL TBS Buffer (150 mM NaCl and 25 mM Tris, pH 7.4). Cells were resuspended in residual TBS buffer (usually ˜100 uL) and analyzed via flow cytometry with detection in the FL1 channel."}, "PSMA coated beads": {"test_system": "PSMA coated beads", "assay": "ROS production (superoxide burst, lucigenin) by primed U937 cells against PSMA coated beads", "type": "cell-based", "details": "PSMA labeled beads, target dependent", "method": "Three days before the experiments, a plate of U937 cells (approximately 60% confluent) was passed into a new Petri dish (10 mL colored RPMI growth media total volume). IFN-γ (20 μL, 100 μg/mL in DPBS) was added, and the cells were maintained in an incubator (37° C., 24 h). The cells were pelleted after 24 hours and resuspended in 10 mL of IFN-γ (20 uL, 100 ug/mL in DPBS) and maintained in an incubator (37° C., 24 h)\nFor ROS production cells were resuspended in RPMI growth media (10 mL), and split equally into two Petri dishes. To each dish were added additional colored RPMI growth media (5 mL) and IFN-γ (20 μL, 100 μg/mL in DPBS), and maintained in an incubator (37° C., 24 h)\nPrimed U937 were suspended in color-free ADCP media at a concentration of 3×10^5 U937 cells and mixed with 10^5 PSMA coated beads and various concentrations of molecules in a 96 well plate in a volume of 90 uL. To each well was added 10 μl of 2.5 mM lucigenin (Tokyo Chemicals) solution to bring the total volume to 100 μl. The plate was centrifuged at 200 rcf for 2 minutes (PLATE SPINNER). The chemiluminescence was then measured at two minute intervals by plate reader (Biotek Synergy 2) for 60 to 90 minutes."}, "[1]": {"target": "T2, FcγRI on IIA1.6 cells and soluble recombinant human PSMA (Homo sapiens, UniProt P12314+Q04609)", "T2 construct": "soluble recombinant human PSMA; Avi-tag; expressed in transfected cells; host or cells: IIA1.6 cells (FcγRI); PSMA added as soluble recombinant protein", "T2 sequence (P12314 16-374)": "as the sequence (P12314 16-374) above", "T2 sequence (Q04609 44-750 limits assumed)": "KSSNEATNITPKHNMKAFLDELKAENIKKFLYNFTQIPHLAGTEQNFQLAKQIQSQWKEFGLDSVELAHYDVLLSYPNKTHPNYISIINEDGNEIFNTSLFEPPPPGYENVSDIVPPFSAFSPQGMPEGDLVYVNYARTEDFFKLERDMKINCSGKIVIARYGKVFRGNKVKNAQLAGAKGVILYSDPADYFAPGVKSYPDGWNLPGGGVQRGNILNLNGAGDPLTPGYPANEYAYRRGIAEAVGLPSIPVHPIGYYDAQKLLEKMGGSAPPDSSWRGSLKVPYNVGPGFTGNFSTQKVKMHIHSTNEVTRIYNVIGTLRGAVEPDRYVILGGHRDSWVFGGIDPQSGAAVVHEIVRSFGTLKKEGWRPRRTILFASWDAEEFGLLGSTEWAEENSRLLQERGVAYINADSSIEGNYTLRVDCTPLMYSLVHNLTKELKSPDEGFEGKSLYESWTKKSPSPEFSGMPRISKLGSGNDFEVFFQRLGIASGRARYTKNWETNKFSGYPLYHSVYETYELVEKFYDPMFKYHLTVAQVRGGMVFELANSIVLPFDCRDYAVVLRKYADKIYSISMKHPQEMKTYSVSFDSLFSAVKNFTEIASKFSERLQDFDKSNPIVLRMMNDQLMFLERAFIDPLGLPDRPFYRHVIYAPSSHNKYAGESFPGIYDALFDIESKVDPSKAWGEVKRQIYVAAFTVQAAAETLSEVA", "T2 sequence (P30273 19-86 partner)": "as the sequence (P30273 19-86 partner) above", "assay": "Ternary complex formation between FcγRI expressing IIA1.6 cells and soluble PSMA", "type": "binding", "details": "probed with phycoerythrin anti-PSMA antibody", "method": "The inventors next evaluated SyAM-P1's ability to induce ternary complex formation, using soluble PSMA and FcγRI expressing cells (IIA1.6 cells) (FIG. 3c). The binding of PSMA to the cells was probed with a phycoerythrin anti-PSMA antibody, and was analyzed using flow cytometry."}, "RM1.PGLS cells [2]": {"test_system": "RM1.PGLS cells", "assay": "Phagocytosis of PSMA expressing RM1.PGLS cells by IFN-γ primed U937 cells", "type": "cell-based", "details": "IFN-γ primed U937 effectors", "method": "Target cell passing: Three days before the experiments, a plate of target cells, RM1.PGLS cells were passed into a new flask.\nEffector cell priming: Three days before the experiments, a plate of U937 cells (approximately 60% confluent) was passed into a new Petri dish (10 mL colored ADCP media total volume). IFN-γ (20 μL, 100 μg/mL in DPBS) was added, and the cells were maintained in an incubator (37° C., 24 h). The cells were transferred into a Falcon tube, and DiD (19 uL, final concentration=1.9 μM) was added. The cells were maintained in an incubator (37° C., 30 min), pelleted, aspirated, resuspended in colored ADCP media (10 mL), and split equally into two Petri dishes. To each dish were added additional colored ADCP media (5 mL) and IFN-γ (20 μL, 100 μg/mL in DPBS), and the cells were maintained in an incubator (37° C., 24 h).\nTarget cell preparation: To a plate of target cells (60-80% confluent RM1.PGLS cells 10 mL total media volume) was added DiO (20 μL, final concentration=2 μM). The cells were maintained in an incubator (37° C., 30 min), aspirated, and washed with colored ADCP media (3×10 mL). Colored ADCP media (10 mL) was added. The cells were maintained in an incubator (37° C., 2 h), detached and resuspended in color-free ADCP media at a concentration of 0.5 million cells per mL.\nEffector cell preparation: Both dishes of primed U937 cells were transferred into a Falcon tube, pelleted, aspirated, resuspended in color-free ADCP media (10 mL), counted, and diluted with color-free ADCP media to give a final concentration of 2 million cells per mL.\nPhagocytosis: All conditions were run in triplicate. For each experiment, into a sterile 2 mL Eppendorf tube were added color-free ADCP media (25 μL) containing either various concentrations of SyAM-Px or ARM-P8/Anti-DNP antibody, target cells (25 μL=12,500 cells), and effector cells (50 μL=100,000 cells), to give an effector-to-target ratio of 8:1. Tubes were gently agitated by hand. The cells were pelleted (2 min, 1100 rpm). The tubes were opened, maintained in an incubator (37° C., 1 h), resuspended by briefly agitating with a vortex, and analyzed by flow cytometry."}, "RM1.PGLS cells [3]": {"test_system": "RM1.PGLS cells", "assay": "Superoxide burst (lucigenin) by primed U937 cells against RM1.PGLS cells", "type": "cell-based", "details": "IFN-γ primed U937 effectors", "text": "Since SyAM-P1 was able to induce effector-cell mediated responses against target protein coated beads, the inventors then evaluated if the molecule can elicit the effects against PSMA expressing cells. To that end, the inventors evaluated the SyAM-P1 induced immune responses by primed U937 effector cells against PSMA expressing RM1.PGLS cells. They tested the U937-mediated immune effects by evaluating both superoxide burst and phagocytosis of effector cells, analogous to the protein coated bead experiments. In this experiment, IFN-γ primed U937 cells were incubated with PSMA expressing RM1.PGLS cells, and treated with various concentrations of SyAM-P1. The resulting superoxide burst response was measured using the lucigenin assay (data not shown). Additionally, primed U937 cells (stained with DiD, an FL4 membrane dye) were incubated with target RM1.PGLS cells (stained with […], an FL1 membrane dye), in the presence of various concentrations of SyAM-P 1. The resulting phagocytosis—indicated by FL1 and FL4 double positive cells—was measured using two-color flow-cytometry. As a positive control, ARM-P8 combined with anti-DNP antibodies was utilized. […] The positive response seen with the Arm-P8 control, could potentially be attributed to the ability of antibodies to ligate both FcγRI and FcγRIIA on the immune effector cells, increasing immune signaling and phagocytic responses."}, "PSMA on RM1.PGLS cells": {"target": "T3, PSMA on RM1.PGLS cells (Homo sapiens, UniProt Q04609)", "T3 construct": "host or cells: RM1.PGLS cells", "T3 sequence (Q04609 whole entry)": "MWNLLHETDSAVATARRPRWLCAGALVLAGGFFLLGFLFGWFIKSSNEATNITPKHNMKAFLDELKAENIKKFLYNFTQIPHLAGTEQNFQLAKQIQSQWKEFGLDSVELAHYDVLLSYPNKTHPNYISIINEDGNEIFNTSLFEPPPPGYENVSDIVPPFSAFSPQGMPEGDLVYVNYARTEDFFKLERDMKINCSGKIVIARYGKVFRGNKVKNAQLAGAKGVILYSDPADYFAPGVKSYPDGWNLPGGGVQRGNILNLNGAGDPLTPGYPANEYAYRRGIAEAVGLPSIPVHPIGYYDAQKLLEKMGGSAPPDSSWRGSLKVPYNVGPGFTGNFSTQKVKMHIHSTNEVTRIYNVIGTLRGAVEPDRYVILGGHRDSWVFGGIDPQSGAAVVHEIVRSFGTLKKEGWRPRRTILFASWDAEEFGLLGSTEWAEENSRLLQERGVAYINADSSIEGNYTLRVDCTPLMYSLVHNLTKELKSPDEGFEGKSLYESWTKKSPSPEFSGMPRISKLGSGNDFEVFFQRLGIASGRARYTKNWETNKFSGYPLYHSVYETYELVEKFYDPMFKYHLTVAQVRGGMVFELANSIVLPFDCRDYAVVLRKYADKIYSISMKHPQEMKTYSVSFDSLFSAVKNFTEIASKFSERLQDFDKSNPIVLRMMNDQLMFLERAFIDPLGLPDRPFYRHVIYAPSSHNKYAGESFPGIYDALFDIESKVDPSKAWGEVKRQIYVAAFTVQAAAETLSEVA", "assay": "Binding to PSMA on RM1.PGLS cells (flow cytometry)", "details": "biotin-functionalized compound, fluorescent streptavidin", "text": "Accordingly, the inventors first synthesized the SyAM-P1 molecule, using Fmoc solid phase peptide synthesis to connect the two moieties (FIG. 2). As a consequence of that chemical synthesis the inventors tried to determine whether linking the two moieties would influence their ability to bind their respective protein targets, in a selective manner (FIG. 3A,B). The inventors thereafter evaluated the ability of the first-generation of SyAM-P molecules, identified as SyAM-P1, to bind PSMA on RM1.PGLS cells (FIG. 3A) or FcγRI on IIA1.6 cells (FIG. 3B). These experiments were conducted using SyAM-P1 molecules that were functionalized with biotin, and the bound SyAM-P1 was detected using a fluorescently labeled streptavidin, via flow-cytometry.\nThe binding of each SyAm derivative to PSMA was evaluated on PSMA-coated beads. 6 μm streptavidin labeled beads (Polysciences) were incubated with 400 μg/ml recombinant avi-tagged-PSMA protein for 30 minutes. Beads were washed twice with PBS, blocked with 1 mg/ml biotin for 30 minutes and then washed twice with TBS-A. 10^5 beads were incubated with a dilution series of SyAm ranging from 1 μM-100 pM. Streptavidin-Alexa467 (Invitrogen) was added to a final concentration of 3.3 μM. Samples were incubated on ice for 30 minutes, washed twice with DPBS, and evaluated by an Accuri C6 flow cytometer. […]"}}, "data": [{"smiles": "CC(=O)N[C@H](C(=O)N[C@@H](CC(N)=O)C(=O)N[C@@H](CO)C(=O)N[C@H]1CSSC[C@@H](C(=O)NCC(=O)N[C@@H](CC(=O)O)C(=O)N[C@@H](CC(=O)O)C(=O)N[C@@H](CCCCNC(=O)CCCC[C@@H]2SC[C@@H]3NC(=O)N[C@@H]32)C(=O)NCCCCCC(=O)NCCCCCC(=O)NCCCCCC(=O)NCCCCCC(=O)NCCCCCC(=O)N[C@@H](CCCCNC(=O)CCCCc2cn(CCCC[C@H](NC(=O)N[C@@H](CCC(=O)O)C(=O)O)C(=O)O)nn2)C(=O)NCC(N)=O)NC(=O)CNC(=O)[C@H](CC(C)C)NC(=O)[C@H](CC(C)C)NC(=O)[C@H](CC(N)=O)NC(=O)[C@@H]2CCCN2C(=O)[C@H](CC(C)C)NC(=O)[C@H](CC(C)C)NC(=O)[C@H](CC(C)C)NC1=O)C(C)C", "note": "[SyAM-P1]", "values": [{"measurement": "binding to FcγRI on IIA1.6 cells", "setting": "FcγRI", "result": "capability to bind to its respective targets"}, {"measurement": "concentration at which superoxide burst is induced", "setting": "PSMA coated beads", "result": 100, "unit": "nM"}, {"measurement": "ternary complex formation", "setting": "[1]", "result": "mediated through SyAM-P1"}, {"measurement": "phagocytosis of RM1.PGLS cells (in words)", "setting": "RM1.PGLS cells [2]", "result": "unable to induce any immune responses"}, {"measurement": "superoxide burst against RM1.PGLS cells (in words)", "setting": "RM1.PGLS cells [3]", "result": "unable to induce any immune responses"}, {"measurement": "binding to PSMA on RM1.PGLS cells", "setting": "PSMA on RM1.PGLS cells", "result": "capability to bind to its respective targets"}]}]}
